{"source": "ChEMBL document CHEMBL1201862", "about": "“PubChem BioAssay data set” (2004)", "assay_type_in_all_cases": "functional", "key": {"[1]": {"molecular_target": "T1, Sentrin-specific protease 6 (Homo sapiens, UniProt Q9GZR1)", "T1 sequence (Q9GZR1 whole entry)": "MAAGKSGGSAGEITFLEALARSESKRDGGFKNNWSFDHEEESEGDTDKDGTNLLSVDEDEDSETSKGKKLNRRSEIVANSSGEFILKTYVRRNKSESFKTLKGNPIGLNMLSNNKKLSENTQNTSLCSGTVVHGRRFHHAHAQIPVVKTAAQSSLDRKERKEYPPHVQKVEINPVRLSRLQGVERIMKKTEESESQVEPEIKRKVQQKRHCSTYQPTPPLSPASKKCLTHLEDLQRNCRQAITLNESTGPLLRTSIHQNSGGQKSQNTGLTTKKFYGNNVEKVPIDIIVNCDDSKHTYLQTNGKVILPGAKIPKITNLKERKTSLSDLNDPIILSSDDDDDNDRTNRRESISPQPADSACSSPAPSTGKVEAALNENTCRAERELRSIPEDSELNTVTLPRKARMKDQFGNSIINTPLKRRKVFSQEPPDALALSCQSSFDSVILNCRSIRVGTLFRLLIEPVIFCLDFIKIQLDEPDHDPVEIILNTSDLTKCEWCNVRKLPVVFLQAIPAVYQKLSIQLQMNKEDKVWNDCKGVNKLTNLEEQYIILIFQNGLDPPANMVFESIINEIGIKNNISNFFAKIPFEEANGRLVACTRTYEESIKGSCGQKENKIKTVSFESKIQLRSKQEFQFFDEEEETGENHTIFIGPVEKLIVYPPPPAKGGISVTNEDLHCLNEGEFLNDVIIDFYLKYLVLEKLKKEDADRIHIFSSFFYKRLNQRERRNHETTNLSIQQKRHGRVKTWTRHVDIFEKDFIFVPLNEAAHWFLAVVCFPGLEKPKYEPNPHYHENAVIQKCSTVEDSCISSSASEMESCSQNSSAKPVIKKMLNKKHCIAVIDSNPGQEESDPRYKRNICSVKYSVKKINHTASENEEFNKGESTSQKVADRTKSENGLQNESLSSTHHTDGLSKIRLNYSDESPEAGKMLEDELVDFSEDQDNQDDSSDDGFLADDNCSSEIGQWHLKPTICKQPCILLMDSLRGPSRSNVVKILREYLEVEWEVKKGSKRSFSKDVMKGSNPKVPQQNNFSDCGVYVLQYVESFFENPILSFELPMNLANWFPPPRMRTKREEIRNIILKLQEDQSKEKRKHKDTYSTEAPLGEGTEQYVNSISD", "test": "SAR Analysis of small molecule inhibitors of Sentrin-specific protease 6 (SENP6) using a Luminescent assay. [Related pubchem assays (depositor defined):AID2582, AID2599]"}, "[2]": {"molecular_target": "T2, Sentrin-specific protease 7 (Homo sapiens, UniProt Q9BQF6)", "T2 sequence (Q9BQF6 whole entry)": "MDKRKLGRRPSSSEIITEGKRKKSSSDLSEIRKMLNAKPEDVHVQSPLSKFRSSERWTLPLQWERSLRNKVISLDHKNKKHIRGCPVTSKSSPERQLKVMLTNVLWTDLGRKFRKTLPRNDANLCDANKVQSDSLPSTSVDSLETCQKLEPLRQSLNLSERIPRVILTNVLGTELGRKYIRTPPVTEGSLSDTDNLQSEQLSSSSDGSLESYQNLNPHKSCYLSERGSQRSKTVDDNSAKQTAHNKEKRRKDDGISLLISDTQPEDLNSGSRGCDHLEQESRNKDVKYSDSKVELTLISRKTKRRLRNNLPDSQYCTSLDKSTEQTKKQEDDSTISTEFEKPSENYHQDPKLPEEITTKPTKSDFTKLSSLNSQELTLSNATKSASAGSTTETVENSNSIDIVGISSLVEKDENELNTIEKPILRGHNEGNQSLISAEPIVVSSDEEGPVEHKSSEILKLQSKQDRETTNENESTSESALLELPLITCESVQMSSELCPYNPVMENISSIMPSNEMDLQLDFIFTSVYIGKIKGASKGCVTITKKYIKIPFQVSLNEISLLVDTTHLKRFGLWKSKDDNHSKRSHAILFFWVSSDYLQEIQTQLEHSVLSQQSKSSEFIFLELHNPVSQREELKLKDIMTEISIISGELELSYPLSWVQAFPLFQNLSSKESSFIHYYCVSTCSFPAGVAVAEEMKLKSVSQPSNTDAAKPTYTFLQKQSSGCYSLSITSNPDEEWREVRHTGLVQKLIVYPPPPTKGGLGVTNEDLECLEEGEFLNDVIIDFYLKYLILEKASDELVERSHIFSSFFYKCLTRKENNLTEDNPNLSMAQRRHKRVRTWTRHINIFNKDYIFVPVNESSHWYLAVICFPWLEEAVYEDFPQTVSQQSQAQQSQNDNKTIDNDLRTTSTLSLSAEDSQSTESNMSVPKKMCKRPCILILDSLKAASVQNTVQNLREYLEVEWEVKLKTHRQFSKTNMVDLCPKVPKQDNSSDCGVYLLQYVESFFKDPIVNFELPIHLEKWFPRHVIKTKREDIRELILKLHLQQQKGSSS", "test": "SENP7 protease inhibitors, SAR follow-up, biochemical, luminescence (AID 504497)"}, "[3]": {"molecular_target": "T3, Sentrin-specific protease 8 (Homo sapiens, UniProt Q96LD8)", "T3 sequence (Q96LD8 whole entry)": "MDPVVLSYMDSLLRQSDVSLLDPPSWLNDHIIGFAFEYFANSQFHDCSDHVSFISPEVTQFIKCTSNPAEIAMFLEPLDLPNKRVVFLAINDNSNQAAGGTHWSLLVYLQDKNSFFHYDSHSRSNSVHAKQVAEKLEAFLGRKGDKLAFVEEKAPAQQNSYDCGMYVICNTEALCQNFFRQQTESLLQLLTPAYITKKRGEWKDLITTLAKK", "test": "SENP8 protease inhibitors, SAR follow-up, biochemical, luminescence (AID 504501)"}, "[4]": {"molecular_target": "T4, Caspase-3 (Homo sapiens, UniProt P42574)", "T4 sequence (P42574 whole entry)": "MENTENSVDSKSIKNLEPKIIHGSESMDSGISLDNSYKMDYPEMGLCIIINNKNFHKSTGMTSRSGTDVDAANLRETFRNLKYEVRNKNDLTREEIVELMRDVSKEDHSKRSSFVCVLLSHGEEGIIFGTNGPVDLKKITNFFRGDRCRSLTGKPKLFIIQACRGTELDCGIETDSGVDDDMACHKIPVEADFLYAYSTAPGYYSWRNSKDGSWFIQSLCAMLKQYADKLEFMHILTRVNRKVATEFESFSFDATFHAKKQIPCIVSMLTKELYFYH", "test": "SAR Analysis of small molecule inhibitors of Sentrin-specific proteases (SENPs) using a Caspase-3 Selectivity assay. [Related pubchem assays (depositor defined):AID2540, AID2599, AID434973, AID489001]"}, "[5]": {"molecular_target": "T5, High affinity choline transporter 1 (Homo sapiens, UniProt Q9GZV3)", "T5 sequence (Q9GZV3 whole entry)": "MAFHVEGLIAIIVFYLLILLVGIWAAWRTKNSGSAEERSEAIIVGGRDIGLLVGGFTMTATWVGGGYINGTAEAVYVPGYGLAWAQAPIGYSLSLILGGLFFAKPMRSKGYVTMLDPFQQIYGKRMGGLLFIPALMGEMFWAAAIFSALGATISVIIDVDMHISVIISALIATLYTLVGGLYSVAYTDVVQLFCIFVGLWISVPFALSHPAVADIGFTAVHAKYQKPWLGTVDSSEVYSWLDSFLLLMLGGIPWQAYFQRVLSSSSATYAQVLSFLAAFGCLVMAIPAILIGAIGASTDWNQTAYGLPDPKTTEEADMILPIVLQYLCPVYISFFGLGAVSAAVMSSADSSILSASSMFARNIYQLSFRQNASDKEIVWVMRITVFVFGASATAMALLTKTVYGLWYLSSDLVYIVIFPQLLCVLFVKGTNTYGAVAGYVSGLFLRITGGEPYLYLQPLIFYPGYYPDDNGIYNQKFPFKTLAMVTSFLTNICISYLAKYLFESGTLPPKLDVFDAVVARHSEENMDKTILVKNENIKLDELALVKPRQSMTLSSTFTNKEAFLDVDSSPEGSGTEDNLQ", "test": "CHT activators, dose response, cell-based, 10-point CRC, membrane potential dye (AID 602376)"}, "[6]": {"test": "Vero cell cytotoxicity, cytotoxicity control for M. tuberculosis inhibitor project, purified and synthesized samples, set 8 (AID 602431)", "conditions": "Mycobacterium tuberculosis"}, "[7]": {"test": "HepG2 cell cytotoxicity, cytotoxicity control, set 6 (AID 602432)", "conditions": "Mycobacterium tuberculosis"}, "[8]": {"test": "THP-1 cell cytotoxicity, cytotoxicity control, set 6 (AID 602433)", "conditions": "Mycobacterium tuberculosis"}, "[9]": {"molecular_target": "Aurora kinase A (Homo sapiens, UniProt O14965)", "sequence (O14965 whole entry)": "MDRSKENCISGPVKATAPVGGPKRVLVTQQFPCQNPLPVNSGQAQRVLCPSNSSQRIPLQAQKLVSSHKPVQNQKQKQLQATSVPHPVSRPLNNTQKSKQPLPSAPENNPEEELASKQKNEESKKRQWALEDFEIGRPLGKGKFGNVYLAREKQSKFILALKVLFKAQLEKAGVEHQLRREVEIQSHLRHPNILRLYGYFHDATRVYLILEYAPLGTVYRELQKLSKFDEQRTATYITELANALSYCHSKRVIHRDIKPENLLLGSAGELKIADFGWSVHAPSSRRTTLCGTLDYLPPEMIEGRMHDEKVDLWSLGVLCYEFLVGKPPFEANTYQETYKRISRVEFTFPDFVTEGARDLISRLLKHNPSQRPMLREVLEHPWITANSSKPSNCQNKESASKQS"}, "[10]": {"molecular_target": "High affinity nerve growth factor receptor (Homo sapiens, UniProt P04629)", "sequence (P04629 whole entry)": "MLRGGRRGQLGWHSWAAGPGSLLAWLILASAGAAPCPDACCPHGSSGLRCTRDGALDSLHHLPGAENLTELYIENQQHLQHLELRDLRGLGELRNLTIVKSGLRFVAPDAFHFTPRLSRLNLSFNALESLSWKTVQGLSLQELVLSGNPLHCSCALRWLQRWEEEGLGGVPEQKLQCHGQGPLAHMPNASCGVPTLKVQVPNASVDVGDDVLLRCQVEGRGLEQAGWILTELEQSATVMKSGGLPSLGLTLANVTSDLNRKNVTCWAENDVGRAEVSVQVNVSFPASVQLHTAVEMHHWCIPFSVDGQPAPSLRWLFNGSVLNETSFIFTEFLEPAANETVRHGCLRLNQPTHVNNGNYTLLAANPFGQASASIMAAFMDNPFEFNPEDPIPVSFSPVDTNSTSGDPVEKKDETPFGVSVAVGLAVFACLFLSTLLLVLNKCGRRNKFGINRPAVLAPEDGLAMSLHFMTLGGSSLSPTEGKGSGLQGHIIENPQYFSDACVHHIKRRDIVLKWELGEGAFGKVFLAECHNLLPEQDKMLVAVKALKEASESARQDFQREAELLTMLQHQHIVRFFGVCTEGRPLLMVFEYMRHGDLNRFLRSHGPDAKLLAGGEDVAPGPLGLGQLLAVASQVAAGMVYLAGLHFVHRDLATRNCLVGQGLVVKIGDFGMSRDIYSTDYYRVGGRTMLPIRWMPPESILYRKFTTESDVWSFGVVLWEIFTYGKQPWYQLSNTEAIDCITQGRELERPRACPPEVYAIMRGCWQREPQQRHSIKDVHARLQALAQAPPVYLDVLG"}, "[11]": {"molecular_target": "Aurora kinase B (Homo sapiens, UniProt Q96GD4)", "sequence (Q96GD4 whole entry)": "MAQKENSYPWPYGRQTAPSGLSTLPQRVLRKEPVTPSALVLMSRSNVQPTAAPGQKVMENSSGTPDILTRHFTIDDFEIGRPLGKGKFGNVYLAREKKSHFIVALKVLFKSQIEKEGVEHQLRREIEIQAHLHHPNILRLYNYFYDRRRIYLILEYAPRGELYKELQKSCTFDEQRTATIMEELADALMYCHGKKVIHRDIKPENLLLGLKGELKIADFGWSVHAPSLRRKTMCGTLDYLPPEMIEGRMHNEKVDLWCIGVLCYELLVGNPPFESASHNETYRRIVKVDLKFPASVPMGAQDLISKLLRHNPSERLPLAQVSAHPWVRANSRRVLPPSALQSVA"}, "[12]": {"molecular_target": "Vascular endothelial growth factor receptor 2 (Homo sapiens, UniProt P35968)", "sequence (P35968 whole entry)": "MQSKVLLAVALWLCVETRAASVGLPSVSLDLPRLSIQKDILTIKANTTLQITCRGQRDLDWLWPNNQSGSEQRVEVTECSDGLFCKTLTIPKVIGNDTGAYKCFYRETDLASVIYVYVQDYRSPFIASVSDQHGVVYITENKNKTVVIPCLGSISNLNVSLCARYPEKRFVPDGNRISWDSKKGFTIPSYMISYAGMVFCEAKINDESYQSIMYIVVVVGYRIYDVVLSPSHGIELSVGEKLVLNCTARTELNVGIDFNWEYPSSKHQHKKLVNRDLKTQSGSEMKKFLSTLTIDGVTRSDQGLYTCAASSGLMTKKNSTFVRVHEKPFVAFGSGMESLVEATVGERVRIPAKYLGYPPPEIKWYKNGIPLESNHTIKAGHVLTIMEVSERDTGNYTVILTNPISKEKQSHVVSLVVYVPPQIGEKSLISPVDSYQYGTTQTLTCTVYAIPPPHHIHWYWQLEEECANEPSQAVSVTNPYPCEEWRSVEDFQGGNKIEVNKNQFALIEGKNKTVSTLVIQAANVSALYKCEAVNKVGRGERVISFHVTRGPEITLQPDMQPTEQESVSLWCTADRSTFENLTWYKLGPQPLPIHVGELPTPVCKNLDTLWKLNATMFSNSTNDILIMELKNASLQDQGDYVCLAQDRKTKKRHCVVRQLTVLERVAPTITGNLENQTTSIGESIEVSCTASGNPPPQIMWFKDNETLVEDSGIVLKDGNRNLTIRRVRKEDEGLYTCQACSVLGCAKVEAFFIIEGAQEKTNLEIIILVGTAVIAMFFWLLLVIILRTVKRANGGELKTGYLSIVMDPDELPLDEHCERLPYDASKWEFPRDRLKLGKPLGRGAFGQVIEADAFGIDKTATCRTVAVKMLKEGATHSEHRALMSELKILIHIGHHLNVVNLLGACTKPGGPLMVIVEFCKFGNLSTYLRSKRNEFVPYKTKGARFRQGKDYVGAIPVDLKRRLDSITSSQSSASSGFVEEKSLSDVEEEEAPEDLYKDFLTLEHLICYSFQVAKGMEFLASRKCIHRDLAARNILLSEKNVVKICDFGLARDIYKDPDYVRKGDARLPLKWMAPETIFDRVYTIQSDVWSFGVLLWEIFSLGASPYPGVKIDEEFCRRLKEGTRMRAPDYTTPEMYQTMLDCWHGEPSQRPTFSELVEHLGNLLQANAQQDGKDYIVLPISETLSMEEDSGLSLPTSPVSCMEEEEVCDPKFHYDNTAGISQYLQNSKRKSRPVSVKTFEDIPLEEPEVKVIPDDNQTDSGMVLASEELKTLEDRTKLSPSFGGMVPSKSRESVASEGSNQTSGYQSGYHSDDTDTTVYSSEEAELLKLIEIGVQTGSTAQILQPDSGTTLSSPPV"}}, "note": "The source made the active and inactive calls.", "data": [{"compound": "CC(C)(C)CC(=O)Nc1ccc(-c2nc3cc(Cl)ccc3s2)cc1", "values": [{"measurement": "IC50", "setting": "[1]", "value": "> 99 µM (inactive)"}, {"measurement": "IC50", "setting": "[2]", "value": "> 99 µM (inactive)"}, {"measurement": "IC50", "setting": "[3]", "value": "> 99 µM (inactive)"}, {"measurement": "IC50", "setting": "[4]", "value": "> 99 µM (inactive)"}]}, {"compound": "CC(C)C(=O)N1CCN(c2ccccc2NC(=O)c2ccc(C#N)cc2F)CC1", "values": [{"measurement": "EC50", "setting": "[5]", "value": "12.9 µM (active)"}]}, {"compound": "COc1ccc(N2CCN(C(=O)c3ccc(CNC(=O)NCc4ccc(Cl)cc4)cc3)CC2)cc1", "values": [{"measurement": "CC50", "setting": "[6]", "value": "29.4 µM (active)"}, {"measurement": "CC50", "setting": "[7]", "value": "> 50 µM (active)"}, {"measurement": "CC50", "setting": "[8]", "value": "> 100 µM (inconclusive)"}]}, {"compound": "CCS(=O)(=O)c1ccc(-c2ccc(-c3n[nH]c4c3Cc3cc(O)c(OC)cc3-4)cc2)cc1", "values": [{"measurement": "Ki", "setting": "[9]", "value": "0.794 µM (active)"}, {"measurement": "Ki", "setting": "[10]", "value": "3.98 µM (active)"}, {"measurement": "Ki", "setting": "[11]", "value": "0.000794 µM (active)"}, {"measurement": "Ki", "setting": "[12]", "value": "1.26 µM (active)"}]}]}
